# Experimental data reported in publication PMC7296828 (Biochemistry, 2020).
# Molecular target: T1, Ribonuclease 6 (RNase 6, RNase K6) (Homo sapiens, UniProt Q93091)
# T1 sequence (Q93091 24-150): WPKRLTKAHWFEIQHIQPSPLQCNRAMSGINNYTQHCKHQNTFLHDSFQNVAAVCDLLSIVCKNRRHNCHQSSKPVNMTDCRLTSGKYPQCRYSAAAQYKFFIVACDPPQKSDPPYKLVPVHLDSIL
# Test: X-ray crystal structure
# Format: binding
smiles,measurement,value
Nc1ncnc2c1ncn2[C@@H]1O[C@H](COP(=O)(O)O)[C@@H](O)[C@H]1O [5’-AMP],Kd,154 ± 5 µM
